Reference: US20120157466A1, “HETEROCYCLIC COMPOUNDS WITH CXCR3 ANTAGONIST ACTIVITY” (priority 2007, published 2012)
Where two headings read alike, the source gives them in different places.

Molecular target: T1, human CXCR3 (N-delta 4) (Homo sapiens, UniProt P49682)
T1 construct: CD8 leader (N); Flag tag; expressed in transfected cells; membrane preparation
T1 sequence (P49682 5-368 limits assumed): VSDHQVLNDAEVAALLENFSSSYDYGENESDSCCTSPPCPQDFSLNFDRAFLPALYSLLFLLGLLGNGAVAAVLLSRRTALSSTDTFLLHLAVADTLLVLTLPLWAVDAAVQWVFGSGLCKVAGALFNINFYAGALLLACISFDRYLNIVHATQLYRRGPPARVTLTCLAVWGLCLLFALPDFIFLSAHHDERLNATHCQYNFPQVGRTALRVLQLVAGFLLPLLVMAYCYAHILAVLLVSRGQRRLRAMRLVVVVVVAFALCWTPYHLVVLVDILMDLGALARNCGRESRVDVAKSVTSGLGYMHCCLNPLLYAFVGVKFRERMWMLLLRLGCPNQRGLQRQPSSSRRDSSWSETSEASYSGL
Assay: Human CXCR3 (N-delta 4) Scintillation Proximity Assay (SPA), [125I] IP-10 binding
Excerpt: The inventive compounds can readily be evaluated to determine activity at The CXCR3 receptors by known methods, such as, for example, Development of Human CXCR3 (N-delta 4) Binding Assay.
Cloning and Expression of Human CXCR3 (N-delta 4):
The DNA encoding human CXCR3 was cloned by PCR using human genomic DNA (Promega, Madison, Wis.) as a template. The PCR primers were designed based on the published sequence of human orphan receptor GPR9 (1) with incorporated restriction sites, a Kozak consensus sequence, CD8 leader and Flag tag. The PCR product was subcloned into the mammalian expression vector pME18Sneo, a derivative of the SR-alpha expression vector (designated as pME18Sneo-hCXCR3 (N-delta 4).
IL-3-dependent mouse pro-B cells Ba/F3 were transfected by electroporation in 0.4 ml Dulbecco's PBS containing 4×10^6 cells with 20 μg of pME18Sneo-hCXCR3 (N-delta 4) plasmid DNA. Cells were pulsed at 400 Volts, 100 OHMs, 960 μFd. The transfected cells were under selection with 1 mg/ml G418 (Life Technologies, Gaithersburg, Md.). G418-resistant Ba/F3 clones were screened for CXCR3 expression by specific binding of [^125I] IP-10 (NEN Life Science Products, Boston, Mass.).
Preparation of Ba/F3-hCXCR3 (N-delta 4) Membranes
Ba/F3 cells expressing human CXCR3 (N-delta 4) were pelleted and resuspended in the lysis buffer containing 10 mM HEPES, pH 7.5 and Complete protease inhibitors (1 tablet per 100 ml) (Boehringer Mannheim, Indianapolis, Ind.) at a cell density of 20×10^6 cells per ml. After 5 minutes incubation on ice, cells were transferred to 4639 cell disruption bomb (Parr Instrument, Moline, Ill.) and applied with 1,500 psi of nitrogen for 30 minutes on ice. Large cellular debris was removed by centrifugation at 1,000×g. Cell membrane in the supernatant was sedimented at 100,000×g. The membrane was resuspended in the lysis buffer supplemented with 10% sucrose and stored at −80° C. Total protein concentration of the membrane was determined by BCA method from Pierce (Rockford, Ill.).
Human CXCR3 (N-delta 4) Scintillation Proximity Assay (SPA)
For each assay point, 2 μg of membrane was preincubated for 1 hr with 300 μg wheat germ agglutinin (WGA) coated SPA beads (Amersham, Arlington Heights, Ill.) in the binding buffer (50 mM HEPES, 1 mM CaCl2, 5 mM MgCl2, 125 mM NaCl, 0.002% NaN3, 1.0% BSA) at room temperature. The beads were spun down, washed once, resuspended in the binding buffer and transferred to a 96-well Isoplate (Wallac, Gaithersburg, Md.). 25 pM of [^125I] IP-10 with tested compounds in a series of titration were added to start the reaction. After 3 hr reaction at room temperature, the amount of [^125I] IP-10 bound to the SPA beads was determined with a Wallac 1450 Microbeta counter.

[1] = human CXCR3, Ba/F3-hCXCR3 (N-delta 4) membranes, 25 pM [125I] IP-10, read-out: IC50 rating (human)
[2] = numerical IC50 values of representative compounds, read-out: IC50

Row | SMILES | IC50 [1] | IC50 [2]
1 | CC[C@H]1CN(c2nc3ncccc3c(=O)n2C2CC2)CCN1C1CCN(C(=O)c2ccc(Cl)nc2N)CC1 [Compound 20] | 25 to 100 nM | –
2 | CC[C@H]1CN(c2nc3ncccc3c(=O)n2C2CC2)CCN1C1CCN(Cc2ccc(Cl)cc2)CC1 [Compound 12] | < 25 nM | 1.9 nM
3 | CC[C@H]1CN(c2nc3ncccc3c(=O)n2C2CC2)CCN1C1CCN(C(=O)c2ccc(Cl)cc2)CC1 [Compound 11] | 25 to 100 nM | –
4 | CC[C@H]1CN(c2nc3ccccc3n2C)CCN1C1CCN(Cc2ccc(Cl)cc2F)CC1 [Compound 10] | > 100 nM | –
5 | O=C(NCc1ccc(F)c(F)c1)c1cnc(N2CCN(C3CCN(C(=O)c4ccc(Cl)cc4)CC3)CC2)nc1C(F)(F)F [Compound 3] | > 100 nM | –
6 | CC[C@H]1CN(c2nc3ncccc3c(=O)n2C2CC2)CCN1C1CCN(Cc2ccc(OC(F)(F)F)cc2)CC1 [Compound 13] | < 25 nM | 2.8 nM
7 | CCNC(=O)c1cc(C)nc(N2CCN(C3CCN(Cc4ccc(Cl)cc4)CC3)[C@@H](CC)C2)n1 [Compound 8] | > 100 nM | –
8 | CC[C@H]1CN(c2nc3ncccc3c(=O)n2C)CCN1C1CCN(C(=O)c2ccc(Cl)cc2)CC1 [Compound 9] | 25 to 100 nM | –
9 | CC[C@H]1CN(c2nc3ncccc3c(=O)n2C2CC2)CCN1C1CCN(Cc2ccc(C(F)(F)F)cc2)CC1 [Compound 14] | < 25 nM | 5.6 nM
10 | CC[C@H]1CN(c2nc3ncccc3c(=O)n2C)[C@H](C)CN1C1CCN(C(=O)c2ccc(Cl)cc2)CC1 [Compound 23] | > 100 nM | –
11 | C[C@H]1CN(c2nccc(C(F)(F)F)n2)CCN1C1CCN(Cc2ccc(Cl)cc2)CC1 [Compound 5] | > 100 nM | –
12 | O=C(NCc1ccc(F)c(F)c1)c1cnc(N2CCN(C3CCN(Cc4ccc(Cl)cc4)CC3)CC2)nc1C(F)(F)F [Compound 2] | > 100 nM | –
13 | CC[C@H]1CN(c2nc3ncccc3c(=O)n2C)CCN1C1CCN(Cc2ccc(OC(F)(F)F)cc2)CC1 [Compound 22] | < 25 nM | –
14 | CC[C@H]1CN(c2nc(Cl)c3nc[nH]c3n2)CCN1C1CCN(Cc2ccc(Cl)cc2F)CC1 [Compound 7] | > 100 nM | –
15 | CC[C@H]1CN(c2nc3ncccc3c(=O)n2C2CC2)CCN1C1CCN(Cc2ccc(Cl)c(F)c2)CC1 [Compound 15] | < 25 nM | 1.8 nM
16 | CC[C@H]1CN(c2nc3ncccc3c(=O)n2C2CC2)CCN1C1CCN(Cc2ccc(F)c(F)c2)CC1 [Compound 16] | < 25 nM | –
17 | CC[C@H]1CN(c2nc3ncccc3c(=O)n2C2CC2)CCN1C1CCN(Cc2ccc(C#N)cc2)CC1 [Compound 18] | < 25 nM | –
18 | CC[C@H]1CN(c2nc3ncccc3c(=O)n2C2CC2)CCN1C1CCN(Cc2ccc(Cl)cc2F)CC1 [Compound 17] | < 25 nM | 2.5 nM
19 | CC[C@H]1CN(c2nc3ncccc3c(=O)n2C)CCN1C1CCN(Cc2ccc(Cl)cc2)CC1 [Compound 21] | < 25 nM | –
20 | CC[C@H]1CN(c2nc3ncccc3c(=O)n2C)CCN1C1CCN(C(=O)c2ccc(Cl)nc2N)CC1 [Compound 19] | > 100 nM | –
